Data on 1 compound can be found in PMC7357169, “Blinded, Multicenter Evaluation of Drug-induced Changes in Contractility Using Human-induced Pluripotent Stem Cell-derived Cardiomyocytes” (Toxicological Sciences, 2020).

Structures are written as SMILES.

One data set deals with hiPSC-CM EHTs. The data set can be described thus: EHT contractility with beat rate slowed by 300 nM ivabradine and electrical pacing 0.5-2.0 Hz. The format is cell-based, human. As to conditions: EHTs with 300 nM ivabradine, paced; only at 0.5 and 0.7 Hz, sometimes at 1 Hz, never at 1.5 or 2 Hz; high concentration bolus. On the procedure: We extended these studies to the 3D EHT platform, this time slowing spontaneous beating to < 0.5 Hz with 300 nM ivabradine, a pharmacological blocker of the “funny” If current ([Bois et al., 1996]). […] Whereas force-frequency relationships was negative above 1.5 Hz, it was positive between 0.5 and 1.5 Hz, evidenced by a 147% increase in force generation concurrent with significant shortening of CT and RT (Supplementary Figure 6). We therefore re-evaluated 6 of the PIs in the presence of 300 nM ivabradine with electrical pacing at 0.5, 0.7, 1.0, 1.5, and 2.0 Hz. These also included epinephrine, levosimendan, and pimobendan, which had been incorrectly predicted by EHT:R-PAT and/or EHT:ERC platform-cell combinations. […] Thus, in both 2D and 3D configurations, lower beating frequencies led to increased predictivity for PIs.
Figure 5. Slowed beat rate increases the predictivity of positive inotropes (PIs) in 3D engineered heart tissues (EHTs). Contraction analysis was carried out using EHTs with 6 of the PIs from the drug test set: epinephrine (Epi), forskolin (For), levosimendan (Lev), pimobendan (Pim), dobutamine (Dob), and milrinone (Mil) which had been predicted with variable accuracy (Figure 4A, web tool). […] Scatter plots show percentage changes relative to baseline at respective frequency. Averaged peaks for force are shown for baseline (BL, black peaks) versus after treatment in EHTs paced at 0.5 Hz (blue peaks) or 2.0 Hz (red peaks). Dunnett’s stats versus baseline at respective frequency: *p < .05; **p < .01; ***p < .001; ****p < .0001.
Supplementary Figure 6. Positive force frequency relationship in EHTs paced between 0.5 and 1.5 Hz. Spontaneous beat rate of EHTs was reduced by 3 hour pre-treatment with 300 nM ivabradine, an If current inhibitor. […] CA increased from 0.5 to 1.5 Hz but plateaued and declined at higher frequencies. These changes were reflected in the CT and RT data. Dunnett's stats vs vehicle control: *, P<0.05; **, P<0.01; ***, P<0.001; ****, P<0.0001.

In the next data set the test system is cardiac contractility. As to conditions: isolated cardiomyocytes/heart muscles, Refs of Supplementary Table 1, cited from earlier work.
For the next data set, the system named is heart. Set-up: method as in Refs column of Supplementary Table 1. As to conditions: Refs of Supplementary Table 1; cited from earlier work.
Another data set concerns PDE3. Set-up: method as in Refs column of Supplementary Table 1. As to conditions: Refs of Supplementary Table 1; read-out: PDE3 inhibitor IC50; cited from earlier work.
The conditions of data set [1]: cited from earlier work.

For the compound `C[C@@H]1CC(=O)NN=C1c1ccc(NN=C(C#N)C#N)cc1` [Levosimendan], in the data set with hiPSC-CM EHTs, the CA response entry is given as “increased contraction amplitude”. For the same compound, in the data set on cardiac contractility, the “Expected effect on contractility in isolated cardiomyocytes/heart muscles” value is “Small PI (~50%), PC#, PCl+PL (14%)”; the “PCl+PL” value is listed as 14%; the “Small PI” value is given as ~50%. Further, the EC50 with cardiac contractility (read-out: Expected effect on contractility in isolated cardiomyocytes/heart muscles, EC50) is ~100 nM. The “Expected cardiac effects in vivo” value with heart is “PI, PC (more heart rate increase and RR decrease than dobutamine)”. For the same compound, in the data set with PDE3, the IC50 was 25 nM. The FTPC in data set [1] (free therapeutic plasma concentration, Refs of Supplementary Table 1) is 0.026 to 0.35 µM. The “FPTC (free plasma therapeutic concentration)” value in data set [1] (ref Supplementary Table 1) was 0.026 to 0.35 µM.
